# Reference: patent USRE39591E1, “6-O-substituted ketolides having antibacterial activity” (Abbott Laboratories, priority 1996, dated 2007)
# Test system: up to 32 different microorganisms
# Assay: in vitro antibacterial activity (MIC), agar dilution on Brain Heart Infusion (BHI) agar with Steers replicator
# Assay type: cell-based
# Settings: unit assumed
# Summary of the method: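 Erythromycin A served as the same-class reference for test-to-test comparability. Test compound was tested over twelve successive dilutions in BHI agar; plates were incubated 20 to 24 hours at 35°-37° C, with MIC taken as the lowest concentration showing no growth, slight haze, or sparse colonies.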
Compound,MIC (organism code AA) [µg/mL],MIC (organism code BB) [µg/mL],MIC (organism code CC) [µg/mL],MIC (organism code DD) [µg/mL],MIC (organism code EE) [µg/mL],MIC (organism code FF) [µg/mL],MIC (organism code GG) [µg/mL],MIC (organism code HH) [µg/mL],MIC (organism code II) [µg/mL],MIC (organism code JJ) [µg/mL],MIC (organism code KK) [µg/mL],MIC (organism code LL) [µg/mL],MIC (organism code MM) [µg/mL],MIC (organism code NN) [µg/mL],MIC (organism code OO) [µg/mL],MIC (organism code PP) [µg/mL],MIC (organism code QQ) [µg/mL],MIC (organism code RR) [µg/mL],MIC (organism code SS) [µg/mL],MIC (organism code TT) [µg/mL],further results
"CC[C@H]1OC(=O)[C@H](C)C(=O)[C@H](C)[C@@H](O[C@@H]2O[C@H](C)C[C@H](N(C)C)[C@H]2O)[C@@](C)(OCCNCc2cnc3ccccc3c2)C[C@@H](C)C(=O)[C@H](C)[C@H]2NC(=O)O[C@@]21C [Example 226, Compound of Formula (IX): L is CO, T is NH, R is —CH2CH2NHCH2(3-quinolyl)]",0.1,0.1,> 100,0.1,0.1,0.1,> 100,0.1,0.05,0.01,0.02,0.01,6.2,0.39,0.02,0.1,6.2,0.2,12.5,> 100,MIC (organism code UU): 9.78 µg/mL; MIC (organism code VV): 0.05 µg/mL; MIC (organism code WW): 2 µg/mL; MIC (organism code XX): 0.03 µg/mL; MIC (organism code YY): 0.03 µg/mL; MIC (organism code ZZ): > 128 µg/mL; MIC (organism code ZZA): 2 µg/mL
"CC[C@H]1OC(=O)[C@H](C)C(=O)[C@H](C)[C@@H](O[C@@H]2O[C@H](C)C[C@H](N(C)C)[C@H]2O)[C@@](C)(OCCNCc2ccc3ncccc3c2)C[C@@H](C)C(=O)[C@H](C)[C@H]2NC(=O)O[C@@]21C [Example 227, Compound of Formula (IX): L is CO, T is NH, R is —CH2CH2NHCH2(6-quinolyl)]",0.2,0.2,> 100,0.2,0.2,0.2,> 100,0.2,0.05,≤ 0.005,0.05,0.02,50,0.39,0.05,0.39,6.2,0.1,25,> 100,MIC (organism code UU): 1.56 µg/mL; MIC (organism code VV): 0.05 µg/mL; MIC (organism code WW): 2 µg/mL; MIC (organism code XX): 0.03 µg/mL; MIC (organism code YY): 0.03 µg/mL; MIC (organism code ZZ): > 64 µg/mL; MIC (organism code ZZA): 2 µg/mL
"CC[C@H]1OC(=O)[C@H](C)C(=O)[C@H](C)[C@@H](O[C@@H]2O[C@H](C)C[C@H](N(C)C)[C@H]2O)[C@@](C)(OCC=NOc2ccccc2)C[C@@H](C)C(=O)[C@H](C)[C@H]2NC(=O)O[C@@]21C [Example 228, Compound of Formula (IX): L is CO, T is NH, R is —CH2CH═NO(phenyl)]",0.39,0.78,> 100,0.78,0.78,0.78,> 100,0.78,0.1,0.02,≤ 0.005,0.01,25,0.78,0.2,0.39,> 100,0.78,> 100,> 100,MIC (organism code UU): 3.1 µg/mL; MIC (organism code VV): 0.78 µg/mL; MIC (organism code WW): 8 µg/mL; MIC (organism code XX): 0.125 µg/mL; MIC (organism code YY): 0.125 µg/mL; MIC (organism code ZZ): > 128 µg/mL; MIC (organism code ZZA): 1 µg/mL
"CC[C@H]1OC(=O)[C@H](C)C(=O)[C@H](C)[C@@H](O[C@@H]2O[C@H](C)C[C@H](N(C)C)[C@H]2O)[C@@](C)(OCC=NOCc2ccccc2)C[C@@H](C)C(=O)[C@H](C)[C@H]2NC(=O)O[C@@]21C [Example 229, Compound of Formula (IX): L is CO, T is NH, R is —CH2CH═NOCH2(phenyl)]",0.2,0.2,> 100,0.2,0.2,0.2,> 100,0.2,0.05,≤ 0.005,0.02,0.01,50,0.2,0.02,0.05,> 100,0.39,> 100,> 100,MIC (organism code UU): 1.56 µg/mL; MIC (organism code VV): 0.2 µg/mL; MIC (organism code WW): 2 µg/mL; MIC (organism code XX): ≤ 0.004 µg/mL; MIC (organism code YY): ≤ 0.004 µg/mL; MIC (organism code ZZ): > 128 µg/mL; MIC (organism code ZZA): 0.125 µg/mL
"CC[C@H]1OC(=O)[C@H](C)C(=O)[C@H](C)[C@@H](O[C@@H]2O[C@H](C)C[C@H](N(C)C)[C@H]2O)[C@@](C)(OCC=NOCc2ccc([N+](=O)[O-])cc2)C[C@@H](C)C(=O)[C@H](C)[C@H]2NC(=O)O[C@@]21C [Example 230, Compound of Formula (IX): L is CO, T is NH, R is —CH2CH═NOCH2(4-NO2-phenyl)]",0.1,0.1,> 100,0.1,0.1,0.2,> 100,0.1,0.05,≤ 0.005,≤ 0.005,≤ 0.005,> 100,0.05,0.05,0.2,100,0.39,> 100,> 100,MIC (organism code UU): 0.78 µg/mL; MIC (organism code VV): 0.05 µg/mL; MIC (organism code WW): 2 µg/mL; MIC (organism code XX): 0.03 µg/mL; MIC (organism code YY): 0.015 µg/mL; MIC (organism code ZZ): 128 µg/mL; MIC (organism code ZZA): 0.25 µg/mL
"CC[C@H]1OC(=O)[C@H](C)C(=O)[C@H](C)[C@@H](O[C@@H]2O[C@H](C)C[C@H](N(C)C)[C@H]2O)[C@@](C)(OCC=NOCc2ccnc3ccccc23)C[C@@H](C)C(=O)[C@H](C)[C@H]2NC(=O)O[C@@]21C [Example 231, Compound of Formula (IX): L is CO, T is NH, R is —CH2CH═NOCH2(4-quinolyl)]",0.1,0.1,> 100,0.1,0.1,0.05,> 100,0.2,0.02,0.02,0.02,0.02,100,0.1,0.02,0.1,100,0.39,100,> 100,MIC (organism code UU): 0.78 µg/mL; MIC (organism code VV): 0.05 µg/mL; MIC (organism code WW): 2 µg/mL; MIC (organism code XX): 0.03 µg/mL; MIC (organism code YY): 0.03 µg/mL; MIC (organism code ZZ): > 128 µg/mL; MIC (organism code ZZA): 0.5 µg/mL
"CC[C@H]1OC(=O)[C@H](C)C(=O)[C@H](C)[C@@H](O[C@@H]2O[C@H](C)C[C@H](N(C)C)[C@H]2O)[C@@](C)(OCC=NOCc2ccc3ccccc3n2)C[C@@H](C)C(=O)[C@H](C)[C@H]2NC(=O)O[C@@]21C [Example 232, Compound of Formula (IX): L is CO, T is NH, R is —CH2CH═NOCH2(2-quinolyl)]",0.1,0.1,> 100,0.2,0.2,0.1,> 100,0.2,0.02,0.02,0.02,0.02,> 100,0.2,0.02,0.2,25,0.39,> 100,> 100,MIC (organism code UU): 0.39 µg/mL; MIC (organism code VV): 0.05 µg/mL; MIC (organism code WW): 2 µg/mL; MIC (organism code XX): 0.03 µg/mL; MIC (organism code YY): 0.03 µg/mL; MIC (organism code ZZ): > 128 µg/mL; MIC (organism code ZZA): 0.5 µg/mL
"CC[C@H]1OC(=O)[C@H](C)C(=O)[C@H](C)[C@@H](O[C@@H]2O[C@H](C)C[C@H](N(C)C)[C@H]2O)[C@@](C)(OCC=NOCc2cnc3ccccc3c2)C[C@@H](C)C(=O)[C@H](C)[C@H]2NC(=O)O[C@@]21C [Example 233, Compound of Formula (IX): L is CO, T is NH, R is —CH2CH═NOCH2(3-quinolyl)]",0.1,0.1,> 100,0.2,0.2,0.1,> 100,0.2,0.05,0.02,0.02,0.02,100,0.1,0.02,0.3,50,0.39,50,> 100,MIC (organism code UU): 0.78 µg/mL; MIC (organism code VV): 0.05 µg/mL; MIC (organism code WW): 2 µg/mL; MIC (organism code XX): 0.03 µg/mL; MIC (organism code YY): 0.03 µg/mL; MIC (organism code ZZ): 64 µg/mL; MIC (organism code ZZA): 0.25 µg/mL
"CC[C@H]1OC(=O)[C@H](C)C(=O)[C@H](C)[C@@H](O[C@@H]2O[C@H](C)C[C@H](N(C)C)[C@H]2O)[C@@](C)(OCC=NOCc2ccc3ncccc3c2)C[C@@H](C)C(=O)[C@H](C)[C@H]2NC(=O)O[C@@]21C [Example 234, Compound of Formula (IX): L is CO, T is NH, R is —CH2CH═NOCH2(6-quinolyl)]",0.1,0.1,> 100,0.2,0.2,0.1,> 100,0.1,0.05,≤ 0.005,0.05,0.01,100,0.2,0.01,0.1,50,0.39,50,> 100,MIC (organism code UU): 0.78 µg/mL; MIC (organism code VV): 0.1 µg/mL; MIC (organism code WW): 2 µg/mL; MIC (organism code XX): 0.03 µg/mL; MIC (organism code YY): 0.03 µg/mL; MIC (organism code ZZ): > 128 µg/mL; MIC (organism code ZZA): 0.25 µg/mL
